According to PubChem BioAssay (NCI):
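Each compound was tested at five concentrations against cells in 96-well plates for 48 hours. TGI: concentration producing complete growth inhibition.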

Tests used:
Assay in all cases: NCI anticancer screen, dose series, 48 h
[1] = test system: SK-MEL-28 melanoma
[2] = test system: EKVX NSCLC
[3] = test system: BT-549 breast
[4] = test system: MCF7 breast
[5] = test system: HCT-15 colon
[6] = test system: ACHN renal
[7] = test system: OVCAR-3 ovarian
[8] = test system: HCT-116 colon
[9] = test system: IGROV1 ovarian
[10] = test system: PC-3 prostate
[11] = test system: UACC-62 melanoma
[12] = test system: OVCAR-4 ovarian
[13] = test system: SNB-19 CNS
[14] = test system: NCI-H460 lung
[15] = test system: SF-268 CNS
[16] = test system: OVCAR-5 ovarian
[17] = test system: SN12C renal
[18] = test system: SF-295 CNS
[19] = test system: SK-OV-3 ovarian
[20] = test system: SF-539 CNS
[21] = test system: A549 NSCLC
[22] = test system: M14 melanoma
[23] = test system: MDA-N
[24] = test system: CAKI-1 renal
[25] = test system: HT29 colon
[26] = test system: MALME-3M melanoma
[27] = test system: SW-620 colon
[28] = test system: MDA-MB-231 breast
[29] = test system: NCI/ADR-RES ovarian
[30] = test system: T-47D breast
[31] = test system: COLO 205 colon
[32] = test system: RPMI-8226 leukemia
[33] = test system: LOX IMVI melanoma
[34] = test system: HOP-62 NSCLC
[35] = test system: SK-MEL-2 melanoma
[36] = test system: RXF 393 renal
[37] = test system: SNB-75 CNS
[38] = test system: OVCAR-8 ovarian
[39] = test system: 786-0 renal
[40] = test system: UACC-257 melanoma
[41] = test system: MDA-MB-435
[42] = test system: HOP-92 NSCLC
[43] = test system: TK-10 renal
[44] = test system: U251 CNS
[45] = test system: SK-MEL-5 melanoma
[46] = test system: HS 578T breast
[47] = test system: K-562 leukemia
[48] = test system: NCI-H226 lung
[49] = test system: NCI-H23 lung
[50] = test system: DU-145 prostate
[51] = test system: NCI-H522 lung
[52] = test system: A498 renal
[53] = test system: UO-31 renal
[54] = test system: KM12 colon
[55] = test system: CCRF-CEM leukemia
[56] = test system: MOLT-4 leukemia
[57] = test system: HL-60(TB) leukemia
[58] = test system: SR leukemia
[59] = test system: HCC-2998 colon

Measured: TGI

Nc1nnnn1CCO
not listed: [55] | [56] | [57] | [58] | [59]
> 100 µM: all other assays above

C/C(=N\NS(=O)(=O)c1ccc(C)cc1)P(=O)(O)O
not listed: [55] | [56] | [57] | [58] | [59]
> 100 µM: all other assays above

CCC(=O)Nc1ccc(NC(C#N)c2cccc(Oc3ccccc3)c2)cc1 (stereo not drawn)
74.2 µM: [20]
94.2 µM: [26]
73.4 µM: [38]
55 µM: [58]
48.1 µM: [45]
89.3 µM: [48]
66.9 µM: [32]
46.8 µM: [57]
47 µM: [33]
94.6 µM: [35]
36 µM: [56]
not listed: [14] | [28] | [40] | [43] | [44] | [59]
> 100 µM: all other assays above

CC(C)C(=O)Nc1cc(C(F)(F)F)ccc1[N+](=O)[O-]
not listed: [37] | [58]
> 100 µM: all other assays above
